Tests used:
Type in all cases: functional
MDA-MB-231 = assay: Growth inhibition of human MDA-MB-231/ATCC cells assessed as cell growth at 10 uM after 48 hrs by SRB assay relative to control; conditions: MDA-MB-231, 48 h, read-out: Activity
UACC-257 = assay: Cytotoxicity against human UACC257 cells assessed as growth inhibition after 48 hrs by SRB assay; conditions: UACC-257, 48 h
U-251 [1] = assay: Growth inhibition of human U251 cells assessed as cell growth at 0.01 uM after 48 hrs by SRB assay relative to control; conditions: U-251, 48 h, read-out: Activity
SW-620 [2] = assay: Growth inhibition of human SW620 cells assessed as cell growth at 10 uM after 48 hrs by SRB assay relative to control; conditions: SW-620, 48 h, read-out: Activity
SW-620 [3] = assay: Cytotoxicity against human SW620 cells assessed as growth inhibition after 48 hrs by SRB assay; conditions: SW-620, 48 h
U-251 [4] = assay: Growth inhibition of human U251 cells assessed as cell growth at 10 uM after 48 hrs by SRB assay relative to control; conditions: U-251, 48 h, read-out: Activity
LOX IMVI = assay: Growth inhibition of human LOXIMVI cells assessed as cell growth at 0.01 uM after 48 hrs by SRB assay relative to control; conditions: read-out: Activity
NCI-H522 = assay: Growth inhibition of human NCI-H522 cells assessed as cell growth at 0.01 uM after 48 hrs by SRB assay relative to control; conditions: NCI-H522, 48 h, read-out: Activity
HT-29 [5] = assay: Growth inhibition of human HT-29 cells assessed as cell growth at 0.1 uM after 48 hrs by SRB assay relative to control; conditions: HT-29, 48 h, read-out: Activity
EKVX = assay: Cytotoxicity against human EKVX cells assessed as growth inhibition after 48 hrs by SRB assay
NCI/ADR-RES = assay: Growth inhibition of human NCI-ADR-RES cells assessed as cell growth at 0.01 uM after 48 hrs by SRB assay relative to control; conditions: read-out: Activity
OVCAR-5 [6] = assay: Growth inhibition of human OVCAR5 cells assessed as cell growth at 100 uM after 48 hrs by SRB assay relative to control; conditions: OVCAR-5, 48 h, read-out: Activity
A549 [7] = assay: Growth inhibition of human A549/ATCC cells assessed as cell growth at 1 uM after 48 hrs by SRB assay relative to control; conditions: A549, 48 h, read-out: Activity
OVCAR-4 = assay: Growth inhibition of human OVCAR4 cells assessed as cell growth at 100 uM after 48 hrs by SRB assay relative to control; conditions: OVCAR-4, 48 h, read-out: Activity
SR = assay: Growth inhibition of human SR cells assessed as cell growth at 0.01 uM after 48 hrs by SRB assay relative to control; conditions: read-out: Activity
HOP-92 [8] = assay: Growth inhibition of human HOP92 cells assessed as cell growth at 100 uM after 48 hrs by SRB assay relative to control; conditions: HOP-92, 48 h, read-out: Activity
MDA-MB-435 = assay: Cytotoxicity against human MDA-MB-435 cells assessed as growth inhibition after 48 hrs by SRB assay; conditions: MDA-MB-435, 48 h
HOP-92 [9] = assay: Growth inhibition of human HOP92 cells assessed as cell growth at 0.1 uM after 48 hrs by SRB assay relative to control; conditions: HOP-92, 48 h, read-out: Activity
UACC-62 = assay: Growth inhibition of human UACC62 cells assessed as cell growth at 0.1 uM after 48 hrs by SRB assay relative to control; conditions: UACC-62, 48 h, read-out: Activity
NCI-H460 [10] = assay: Growth inhibition of human NCI-H460 cells assessed as cell growth at 0.01 uM after 48 hrs by SRB assay relative to control; conditions: NCI-H460, 48 h, read-out: Activity
HT-29 [11] = assay: Growth inhibition of human HT-29 cells assessed as cell growth at 0.01 uM after 48 hrs by SRB assay relative to control; conditions: HT-29, 48 h, read-out: Activity
OVCAR-5 [12] = assay: Cytotoxicity against human OVCAR5 cells assessed as growth inhibition after 48 hrs by SRB assay; conditions: OVCAR-5, 48 h
IGROV-1 = assay: Growth inhibition of human IGROV1 cells assessed as cell growth at 0.01 uM after 48 hrs by SRB assay relative to control; conditions: IGROV-1, 48 h, read-out: Activity
NCI-H460 [13] = assay: Growth inhibition of human NCI-H460 cells assessed as cell growth at 1 uM after 48 hrs by SRB assay relative to control; conditions: NCI-H460, 48 h, read-out: Activity
MCF7 = assay: Growth inhibition of human MCF7 cells assessed as cell growth at 0.01 uM after 48 hrs by SRB assay relative to control; conditions: MCF7, 48 h, read-out: Activity
A549 [14] = assay: Growth inhibition of human A549/ATCC cells assessed as cell growth at 0.01 uM after 48 hrs by SRB assay relative to control; conditions: A549, 48 h, read-out: Activity
MDA-MB-468 = assay: Cytotoxicity against human MDA-MB-468 cells assessed as growth inhibition after 48 hrs by SRB assay; conditions: MDA-MB-468, 48 h
[15] = read-out: LC50 (the source's name)
[16] = read-out: pLC50 (the source's name) (converted)

Compound: COc1ccc2c(c1)CCc1n[nH]c(-c3cc(OC)c(OC)c(OC)c3)c1-2
- growth at 10 µM (MDA-MB-231): 33%
- CC50 (UACC-257; [15]): > 100 µM
- TGI (UACC-257; read-out: TGI): 34.2 µM
- CC50 (UACC-257; [16]): > 100 µM
- TGI (UACC-257; read-out: pTGI (converted)): 33.9 µM
- growth at 0.01 µM (U-251 [1]): 14%
- growth at 10 µM (SW-620 [2]): 14%
- GI50 (SW-620 [3]; read-out: GI50): < 0.01 µM
- CC50 (SW-620 [3]; [15]): 52.2 µM
- TGI (SW-620 [3]; read-out: TGI): 14.5 µM
- GI50 (SW-620 [3]; read-out: pGI50 (converted)): < 0.01 µM
- CC50 (SW-620 [3]; [16]): 52.5 µM
- TGI (SW-620 [3]; read-out: pTGI (converted)): 14.5 µM
- growth at 10 µM (U-251 [4]): 5%
- growth at 0.01 µM (LOX IMVI): 21%
- growth at 0.01 µM (NCI-H522): -16%
- growth at 0.1 µM (HT-29 [5]): 2%
- CC50 (EKVX; [15]): > 100 µM
- TGI (EKVX; read-out: TGI): 39 µM
- CC50 (EKVX; [16]): > 100 µM
- TGI (EKVX; read-out: pTGI (converted)): 38.9 µM
- growth at 0.01 µM (NCI/ADR-RES): -13%
- growth at 100 µM (OVCAR-5 [6]): -22%
- growth at 1 µM (A549 [7]): 11%
- growth at 100 µM (OVCAR-4): -12%
- growth at 0.01 µM (SR): 23%
- growth at 100 µM (HOP-92 [8]): -50%
- GI50 (MDA-MB-435; read-out: GI50): < 0.01 µM
- CC50 (MDA-MB-435; [15]): 29.8 µM
- TGI (MDA-MB-435; read-out: TGI): < 0.01 µM
- GI50 (MDA-MB-435; read-out: pGI50 (converted)): < 0.01 µM
- CC50 (MDA-MB-435; [16]): 29.5 µM
- TGI (MDA-MB-435; read-out: pTGI): < 0.01 µM
- growth at 0.1 µM (HOP-92 [9]): 30%
- growth at 0.1 µM (UACC-62): 35%
- growth at 0.01 µM (NCI-H460 [10]): 3%
- growth at 0.01 µM (HT-29 [11]): 5%
- GI50 (OVCAR-5 [12]; read-out: GI50): 0.242 µM
- LC50 (OVCAR-5 [12]; read-out: LC50): > 100 µM
- TGI (OVCAR-5 [12]; read-out: TGI): 38.8 µM
- GI50 (OVCAR-5 [12]; read-out: pGI50 (converted)): 0.24 µM
- LC50 (OVCAR-5 [12]; read-out: pLC50 (converted)): > 100 µM
- TGI (OVCAR-5 [12]; read-out: pTGI (converted)): 38.9 µM
- growth at 0.01 µM (IGROV-1): 39%
- growth at 1 µM (NCI-H460 [13]): 2%
- growth at 0.01 µM (MCF7): 17%
- growth at 0.01 µM (A549 [14]): 14%
- GI50 (MDA-MB-468; read-out: GI50): < 0.01 µM
- LC50 (concentration killing 50% of cells) (MDA-MB-468; read-out: LC50): > 100 µM
- TGI (MDA-MB-468; read-out: TGI): < 0.01 µM
- GI50 (MDA-MB-468; read-out: pGI50 (converted)): < 0.01 µM
- LC50 (concentration killing 50% of cells) (MDA-MB-468; read-out: pLC50 (converted)): > 100 µM
- TGI (MDA-MB-468; read-out: pTGI): < 0.01 µM

— ChEMBL document CHEMBL4346757, “Synthesis and biological evaluation of 7-methoxy-1-(3,4,5-trimethoxyphenyl)-4,5-dihydro-2H-benzo[e]indazoles as new colchicine site inhibitors” (Bioorg Med Chem Lett, 2019)
